Test results taken from ChEMBL document CHEMBL3616390, “Design and synthesis of N-[6-(Substituted Aminoethylideneamino)-2-Hydroxyindan-1-yl]arylamides as selective and potent muscarinic M₁ agonists” (Bioorg Med Chem Lett, 2015).
pEC50: −log10 of the molar value.

Key:
Assay type in all cases: functional, cell-based; call rule not given here
[1] = biological target: Muscarinic acetylcholine receptor M3 (Homo sapiens, UniProt P20309); test: Agonist activity at human muscarinic M3 receptor expressed in CHO cells after 30 mins by GTPgamma35S binding assay; conditions: cho
[2] = biological target: T1, Muscarinic acetylcholine receptor M4 (Homo sapiens) (UniProt P08173); test: Agonist activity at human muscarinic M4 receptor expressed in CHO cells after 30 mins by GTPgamma35S binding assay relative to oxotremorine-M
T1 sequence (whole entry): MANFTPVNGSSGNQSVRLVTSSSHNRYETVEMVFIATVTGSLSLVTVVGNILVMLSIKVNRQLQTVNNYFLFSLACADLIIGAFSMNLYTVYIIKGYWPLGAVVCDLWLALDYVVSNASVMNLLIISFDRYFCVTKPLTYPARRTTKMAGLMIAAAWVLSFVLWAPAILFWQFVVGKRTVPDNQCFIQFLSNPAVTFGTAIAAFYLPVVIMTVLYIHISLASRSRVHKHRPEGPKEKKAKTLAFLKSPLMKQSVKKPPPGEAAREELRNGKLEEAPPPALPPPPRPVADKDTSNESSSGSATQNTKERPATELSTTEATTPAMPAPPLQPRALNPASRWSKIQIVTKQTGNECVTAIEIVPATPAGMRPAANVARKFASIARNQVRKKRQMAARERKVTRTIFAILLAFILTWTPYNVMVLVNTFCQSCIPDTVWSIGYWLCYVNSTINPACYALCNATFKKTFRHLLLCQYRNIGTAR

[3] = biological target: T2, Muscarinic acetylcholine receptor M2 (Homo sapiens) (UniProt P08172); test: Agonist activity at human muscarinic M2 receptor expressed in CHO cells after 30 mins by GTPgamma35S binding assay relative to oxotremorine-M
T2 sequence (whole entry): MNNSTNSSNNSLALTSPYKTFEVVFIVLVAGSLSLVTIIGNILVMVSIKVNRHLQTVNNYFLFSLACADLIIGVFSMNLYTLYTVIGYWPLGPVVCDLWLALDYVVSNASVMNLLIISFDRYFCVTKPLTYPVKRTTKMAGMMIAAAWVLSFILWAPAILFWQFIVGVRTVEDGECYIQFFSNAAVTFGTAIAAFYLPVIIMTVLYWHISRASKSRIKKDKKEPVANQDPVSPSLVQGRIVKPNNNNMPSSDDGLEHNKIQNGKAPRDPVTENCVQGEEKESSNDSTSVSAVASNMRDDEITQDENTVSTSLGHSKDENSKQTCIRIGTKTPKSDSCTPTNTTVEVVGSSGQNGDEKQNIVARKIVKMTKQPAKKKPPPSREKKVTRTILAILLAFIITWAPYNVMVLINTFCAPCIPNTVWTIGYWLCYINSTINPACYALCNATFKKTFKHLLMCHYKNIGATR

[4] = biological target: T3, Muscarinic acetylcholine receptor M1 (Homo sapiens, UniProt P11229); test: Agonist activity at human muscarinic M1 receptor expressed in CHO cells after 30 mins by GTPgamma35S binding assay
T3 sequence (P11229 whole entry): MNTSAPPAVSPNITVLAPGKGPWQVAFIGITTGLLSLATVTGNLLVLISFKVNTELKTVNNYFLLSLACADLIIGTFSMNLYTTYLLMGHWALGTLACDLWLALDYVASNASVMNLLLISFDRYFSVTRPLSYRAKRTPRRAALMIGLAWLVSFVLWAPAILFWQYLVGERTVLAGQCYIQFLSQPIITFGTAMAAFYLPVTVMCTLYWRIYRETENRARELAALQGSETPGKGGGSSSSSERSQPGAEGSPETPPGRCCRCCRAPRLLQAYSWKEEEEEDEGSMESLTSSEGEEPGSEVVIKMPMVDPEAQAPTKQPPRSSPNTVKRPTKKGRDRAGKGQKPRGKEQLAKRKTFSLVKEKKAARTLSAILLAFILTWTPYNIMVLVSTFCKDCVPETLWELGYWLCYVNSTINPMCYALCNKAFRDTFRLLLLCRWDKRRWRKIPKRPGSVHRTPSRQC

[5] = biological target: T4, Muscarinic acetylcholine receptor M1 (Homo sapiens) (UniProt P11229); test: Agonist activity at human muscarinic M1 receptor expressed in CHO cells after 30 mins by GTPgamma35S binding assay relative to oxotremorine-M
T4 sequence (whole entry): T3 sequence (P11229 whole entry)

[6] = biological target: T5, Muscarinic acetylcholine receptor M5 (Homo sapiens, UniProt P08912); test: Agonist activity at human muscarinic M5 receptor expressed in CHO cells after 30 mins by GTPgamma35S binding assay; conditions: cho
T5 sequence (P08912 whole entry): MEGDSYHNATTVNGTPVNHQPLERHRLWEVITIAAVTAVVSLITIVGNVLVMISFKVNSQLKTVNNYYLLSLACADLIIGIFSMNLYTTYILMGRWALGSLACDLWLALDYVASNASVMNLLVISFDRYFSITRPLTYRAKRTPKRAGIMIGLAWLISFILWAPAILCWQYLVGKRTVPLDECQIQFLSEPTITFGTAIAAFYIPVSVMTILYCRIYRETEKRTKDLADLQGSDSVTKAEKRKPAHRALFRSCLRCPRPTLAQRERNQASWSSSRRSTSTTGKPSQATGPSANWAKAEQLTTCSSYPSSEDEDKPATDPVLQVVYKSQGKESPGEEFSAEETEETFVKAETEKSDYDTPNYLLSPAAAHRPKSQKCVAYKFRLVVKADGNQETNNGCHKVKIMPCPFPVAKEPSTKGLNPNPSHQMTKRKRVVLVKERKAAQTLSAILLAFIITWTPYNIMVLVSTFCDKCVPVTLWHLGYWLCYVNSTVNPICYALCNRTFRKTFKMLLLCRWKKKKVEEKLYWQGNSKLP

[7] = biological target: T6, Muscarinic acetylcholine receptor M4 (Homo sapiens, UniProt P08173); test: Agonist activity at human muscarinic M4 receptor expressed in CHO cells after 30 mins by GTPgamma35S binding assay
T6 sequence (P08173 whole entry): T1 sequence (whole entry)

[8] = biological target: T7, Muscarinic acetylcholine receptor M2 (Homo sapiens, UniProt P08172); test: Agonist activity at human muscarinic M2 receptor expressed in CHO cells after 30 mins by GTPgamma35S binding assay
T7 sequence (P08172 whole entry): T2 sequence (whole entry)

Sequence of Muscarinic acetylcholine receptor M3 (P20309 whole entry): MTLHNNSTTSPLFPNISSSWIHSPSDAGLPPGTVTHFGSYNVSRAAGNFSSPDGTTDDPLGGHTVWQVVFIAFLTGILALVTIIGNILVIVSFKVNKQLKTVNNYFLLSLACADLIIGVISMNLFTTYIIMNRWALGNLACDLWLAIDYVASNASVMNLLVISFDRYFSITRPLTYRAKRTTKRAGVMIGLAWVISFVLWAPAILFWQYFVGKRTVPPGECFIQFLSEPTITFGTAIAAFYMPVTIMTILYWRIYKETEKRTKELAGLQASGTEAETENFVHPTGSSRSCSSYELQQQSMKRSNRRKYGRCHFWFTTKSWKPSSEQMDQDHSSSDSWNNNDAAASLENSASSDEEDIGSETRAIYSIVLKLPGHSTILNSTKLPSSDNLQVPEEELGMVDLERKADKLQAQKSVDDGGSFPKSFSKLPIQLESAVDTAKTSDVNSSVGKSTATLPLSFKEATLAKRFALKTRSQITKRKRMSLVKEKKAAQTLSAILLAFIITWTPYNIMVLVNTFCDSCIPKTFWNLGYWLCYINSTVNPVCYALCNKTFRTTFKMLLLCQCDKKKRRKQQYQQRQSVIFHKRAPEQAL

Structure (SMILES) | EC50 [1] | Efficacy [2] [%] | Efficacy [3] [%] | pEC50 [4] | Efficacy [5] [%] | EC50 [6] | pEC50 [7] | pEC50 [8]
COc1ccc(N/C(C)=N/c2ccc3c(c2)[C@@H](NC(=O)c2ccc(Br)cc2)[C@H](O)C3)cc1 | Not Active | < 20 | < 20 | 6.98 | 35.3 | Not Active | – | –
COc1cccc(CN/C(C)=N/c2ccc3c(c2)[C@@H](NC(=O)c2ccc(Br)cc2)[C@H](O)C3)c1 | Not Active | < 20 | < 20 | 6.70 | 60 | Not Active | – | –
C/C(=N\c1ccc2c(c1)[C@@H](NC(=O)c1ccc(Cl)cc1)[C@H](O)C2)N(C)Cc1ccc(F)cc1 | Not Active | 42.8 | 45 | 7.51 | 112 | Not Active | 6.39 | 7.18
C/C(=N\c1ccc2c(c1)[C@@H](NC(=O)c1ccc(Br)cc1)[C@H](O)C2)NCc1cccc(F)c1 | Not Active | 33.4 | 26.6 | 7.32 | 94 | Not Active | 6.45 | 6.36
C/C(=N\c1ccc2c(c1)[C@@H](NC(=O)c1ccc(Br)cc1)[C@H](O)C2)NCc1ccccc1F | Not Active | 25.7 | 33.6 | 7.06 | 78.5 | Not Active | 6.64 | 6.93
C/C(=N\c1ccc2c(c1)[C@@H](NC(=O)c1ccc(Br)cc1)[C@H](O)C2)N(C)Cc1ccc(F)cc1 | Not Active | 34.3 | 30.9 | 6.81 | 107 | Not Active | 5.43 | 6.22
COc1ccc(CN/C(C)=N/c2ccc3c(c2)[C@@H](NC(=O)c2ccc(Br)cc2)[C@H](O)C3)cc1 | Not Active | < 20 | < 20 | 6.08 | 32.1 | Not Active | – | –
COc1ccc(C(=O)N[C@@H]2c3cc(/N=C(\C)N(C)Cc4ccc(F)cc4)ccc3C[C@H]2O)cc1 | Not Active | < 20 | < 20 | 6.78 | 93.2 | Not Active | – | –
C/C(=N\c1ccc2c(c1)[C@@H](NC(=O)c1ccc(Br)cc1)[C@H](O)C2)NCCc1ccc(F)cc1 | Not Active | < 20 | 38.5 | 6.74 | 90.6 | Not Active | – | 6.68
O=C(N[C@@H]1c2cc(/N=C(/Nc3ccc(F)cc3)C(F)(F)F)ccc2C[C@H]1O)c1ccc(Br)cc1 | Not Active | < 20 | < 20 | – | < 20 | Not Active | – | –
C/C(=N\c1ccc2c(c1)[C@@H](NC(=O)c1ccc(C)cc1)[C@H](O)C2)N(C)Cc1ccc(F)cc1 | Not Active | 41.5 | 45.1 | 7.31 | 106 | Not Active | 6.63 | 7.18
C/C(=N\c1ccc2c(c1)[C@@H](NC(=O)c1ccc(Br)cc1)[C@H](O)C2)N(C)CCc1ccc(F)cc1 | Not Active | < 20 | 20.8 | 7.09 | 68.5 | Not Active | – | 6.47
COc1ccccc1CN/C(C)=N/c1ccc2c(c1)[C@@H](NC(=O)c1ccc(Br)cc1)[C@H](O)C2 | Not Active | < 20 | < 20 | 6.24 | 71.5 | Not Active | – | –
